Assay results published in publication PMC12250302, “Synthesis, Antimicrobial Activities, and Model of Action of Novel Tetralone Derivatives Containing Aminoguanidinium Moiety” (International Journal of Molecular Sciences, 2025).
Values after ≈ are worked out from the molar mass of the structure shown. “Also recorded” adds a separate entry of the source.

Tests used:
MRSA-2 [1] = assay: MRSA-induced mouse skin abscess model; format: in vivo
Text: The MRSA-induced mouse skin abscess model was used to assess the in vivo antibacterial effects of 2D. Female KM mice, aged 4–6 weeks and weighing 20 ± 2 g, were purchased from the Laboratory Animal Center, Lanzhou Institute of Veterinary Medicine, Chinese Academy of Agricultural Sciences. The animal experiments were approved by the Ethics Committee of Research Involving Animals of the Lanzhou Institute of Husbandry and Pharmaceutical Science of CAAS (Approval number: 2025-03) and performed in accordance with the guidelines of the Ethics Committee for Animal Experiments. Prior to the formal experiment, all mice were acclimated for 5 days. The mice were kept in a pathogen-free environment with a 12 h light/12 h dark cycle, 50% ± 10% humidity, and a temperature of 24 °C ± 2 °C. […] The depilation method employed was as follows: depilatory paste was applied to the designated area for 10 min, after which it was thoroughly washed with 0.9% saline. The mice were semi-anesthetized by intraperitoneal injection with sodium Ulatan (TCI, 20%, 100 μL). […] After a 24 h interval, the administration was repeated, and 24 h after the last administration, the volume of abscess was measured and calculated. Then, the skin of the infected site and main organs were collected for tissue bacterial load and pathological detection.

[2] = test system: human liver cell line (HepG2); assay: Cytotoxicity, CCK-8 method; format: cell-based
Method: (§1) The CCK-8 method was used to evaluate the toxicity of 2D to four cell lines (lung cancer cell line (A549), human liver cell line (HepG2), human embryonic kidney 293T cells (HEK 293-T), and human colon adenocarcinoma cell line (Caco-2)). Cells with a density of 1 × 10^5 cells/well were added to 96-well plates and then incubated for 24 h at 5% CO2 and 37 °C. Subsequently, after treatment with different concentrations of 2D for 24 h, the CCK-8 kit was added according to the prescribed procedure. Following an incubation at 37 °C for 0.5 h, the absorbances at 450 nm were detected. The […] was calculated according to the following formula:Cytotoxic (%) = (Atest/Acontrol) × 100%(2)

[3] = test system: human colon adenocarcinoma cell line (Caco-2); assay: Cytotoxicity, CCK-8 method; format: cell-based
Method: as §1

[4] = test system: lung cancer cell line (A549); assay: Cytotoxicity, CCK-8 method; format: cell-based
Method: as §1

[5] = test system: human embryonic kidney 293T cells (HEK 293-T); assay: Cytotoxicity, CCK-8 method; format: cell-based
Method: as §1

MRSA-2 biofilm [6] = assay: Biofilm formation inhibition assay (crystal violet); format: cell-based, Staphylococcus aureus; conditions: MRSA-2
Method: The effect of 2D on the biofilm formation of MRSA was evaluated. MRSA-2 was cultured in MH broth for a period of 3–5 h, after which it was diluted to a density of 1 × 10^6 CFU/mL with MH broth. […] After the removal of the suspended bacteria, the well plates were washed thrice with PBS. Then, 150 μL of methanol was added and fixed for 30 min. Subsequent to air-drying, 150 μL of a 0.1% crystal violet aqueous solution was added. Following a 15 min staining period, the excess crystal violet was removed by rinsing with flowing water. Finally, 150 μL of anhydrous ethanol was added and the mixture was incubated for 20 min. The optical density at 575 nm was detected.

[7] = test system: clinical S. aureus isolate LMY47; assay: MIC and MBC testing, broth microdilution; format: cell-based, Staphylococcus aureus; conditions: Staphylococcus aureus, LMY47
In short: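 Broth microdilution in MH broth: 2-fold compound dilutions from DMSO stocks, log-phase clinical S. aureus isolates or MRSA-1 at 1 × 10^6 CFU/mL, 18 h at 37 °C, each concentration in triplicate. MIC recorded; MBC also determined.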

[8] = test system: clinical S. aureus isolate LMY45; assay: MIC and MBC testing, broth microdilution; format: cell-based, Staphylococcus aureus; conditions: Staphylococcus aureus, LMY45
In short: (§2)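 Compounds in DMSO were serially two-fold diluted in MH broth and mixed with log-phase bacteria diluted to 1 × 10^6 CFU/mL in MH broth, then incubated 18 h at 37 °C. MBC values were also determined. Each concentration was tested in triplicate.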

[9] = test system: clinical S. aureus isolate LMY46; assay: MIC and MBC testing, broth microdilution; format: cell-based, Staphylococcus aureus; conditions: Staphylococcus aureus, LMY46
In short: as §2

MRSA-1 = assay: MIC and MBC testing, broth microdilution; format: cell-based, Staphylococcus aureus; conditions: Staphylococcus aureus, MRSA-1
In short: as §2

MRSA-2 [10] = assay: MIC and MBC testing, broth microdilution; format: cell-based, Staphylococcus aureus; conditions: Staphylococcus aureus, MRSA-2
In short: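 Log-phase cultures, adjusted to 1 × 10^6 CFU/mL in MH broth, are exposed to twofold serial compound dilutions and held at 37 °C for 18 h. Triplicate per concentration; both inhibitory and bactericidal endpoints are taken.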

[11] = test system: clinical S. aureus isolate LMY48; assay: MIC and MBC testing, broth microdilution; format: cell-based, Staphylococcus aureus; conditions: Staphylococcus aureus, LMY48
In short: as §2

MRSA-2 biofilm [12] = assay: Biofilm elimination assay (crystal violet); format: cell-based, Staphylococcus aureus; conditions: 0.25 μg/mL, 24 h
Method: The ability of 2D to eliminate biofilm was evaluated. MRSA-2 (1 × 10^6 CFU/mL) was incubated in 96-well plates for 24 h until biofilm formation. The planktonic bacteria were discarded and washed thrice with PBS. […] According to the above method, the OD575 nm value was detected after the following steps: PBS washing, methanol fixation, crystal violet staining, and ethanol incubation.

Q: Which “purulent lesions at the infection site (skin histopathology)” value (MRSA-2 [1]; 5 mg/kg) does the source give for [H]/N=C(\N)NN=C1CCCc2cc(OCCCCCCC)ccc21 [Compound 2D, (E)-2-(6-(heptyloxy)-3,4-dihydronaphthalen-1(2H)-ylidene)hydrazine-1-carboximidamide] here?
A: Its value is “significantly smaller”.

Q: What about the “volume of skin abscess” value (MRSA-2 [1]; 5 mg/kg, injected 2 h and 24 h postinfection, compared to model and solvent group) of the same compound?
A: The value was “reduced volume”.

Q: And the “purulent foci (skin histopathology)” value (MRSA-2 [1]; 10 mg/kg)?
A: Its value is “almost no purulent foci”.

Q: What about the skin abscess appearance (MRSA-2 [1]; 10 mg/kg, injected 2 h and 24 h postinfection) of the same compound?
A: Its skin abscess appearance is “devoid of any discernible abscesses”.

Q: What about the “bacterial load of the skin at the infected site” value (MRSA-2 [1]; 2D 5 and 10 mg/kg, vancomycin 5 mg/kg, compared with model and solvent group) of the same compound?
A: The value was “decreased bacterial load; also recorded: significantly reduced”.

Q: What about the “histopathology of the major organs” value (MRSA-2 [1]; infected mice after treatment, H&E) of the same compound?
A: The value was “no discernible lesions”.

Q: And the IC50 ([2]; Homo sapiens, HepG2, 24 h, CCK-8)?
A: The IC50 was 6 mg/L (≈ 19 µM).

Q: And the “Selectivity index (SI)” value ([2]; SI = IC50 (HepG2)/MIC ATCC 29213)?
A: The value was 12.00.

Q: And the IC50 ([3]; Homo sapiens, CaCo-2, 24 h, CCK-8)?
A: Its IC50 is 9.86 mg/L (≈ 31.2 µM).

Q: And the “Selectivity index (SI)” value ([3]; SI = IC50 (CaCo-2)/MIC ATCC 29213)?
A: The value was 19.72.

Q: And the IC50 ([4]; Homo sapiens, A549, 24 h, CCK-8)?
A: The IC50 was 3.57 mg/L (≈ 11.3 µM).

Q: What about the “Selectivity index (SI)” value ([4]; SI = IC50 (A549)/MIC ATCC 29213) of the same compound?
A: Its value is 7.14.

Q: What about the IC50 ([5]; Homo sapiens, HEK 293-T, 24 h, CCK-8) of the same compound?
A: Its IC50 is 13.1 mg/L (≈ 41.4 µM).

Q: What about the “Selectivity index (SI)” value ([5]; SI = IC50 (HEK 293-T)/MIC ATCC 29213) of the same compound?
A: The value was 26.18.

Q: And the “reduction of biofilm formation” value (MRSA-2 biofilm [6]; 1 μg/mL (1MIC), 24 h)?
A: The value was “more than 92%”.

Q: And the “inhibition of biofilm formation” value (MRSA-2 biofilm [6]; 2–32 μg/mL (2-32MIC))?
A: Its value is “almost completely inhibited the formation of biofilm”.

Q: And the inhibition at 0.25 µg/mL (MRSA-2 biofilm [6]; Staphylococcus aureus, 0.25 μg/mL (1/4MIC), 24 h, read-out: inhibition rate of biofilm formation)?
A: Its inhibition at 0.25 µg/mL is about 18.5%.

Q: What about the inhibition at 0.5 µg/mL (MRSA-2 biofilm [6]; Staphylococcus aureus, 0.5 μg/mL (1/2MIC), 24 h, read-out: inhibition rate of biofilm formation) of the same compound?
A: Its inhibition at 0.5 µg/mL is about 37.8%.

Q: What about the MIC ([7]; 18 h, read-out: MIC) of the same compound?
A: Its MIC is 1 mg/L (≈ 3.16 µM).

Q: What about the MBC ([7]; read-out: MBC) of the same compound?
A: Its MBC is 4 mg/L (≈ 12.6 µM).

Q: And the MIC ([8]; 18 h, read-out: MIC)?
A: The MIC was 2 mg/L (≈ 6.32 µM).

Q: What about the MBC ([8]; read-out: MBC) of the same compound?
A: The MBC was 2 mg/L (≈ 6.32 µM).

Q: What about the MIC ([9]; 18 h, read-out: MIC) of the same compound?
A: The MIC was 4 mg/L (≈ 12.6 µM).

Q: And the MBC ([9]; read-out: MBC)?
A: Its MBC is 32 mg/L (≈ 101 µM).

Q: What about the MIC (MRSA-1; 18 h, read-out: MIC) of the same compound?
A: Its MIC is 1 mg/L (≈ 3.16 µM).

Q: And the MBC (MRSA-1; read-out: MBC)?
A: The MBC was 16 mg/L (≈ 50.6 µM).

Q: What about the MIC (MRSA-2 [10]; 18 h, read-out: MIC) of the same compound?
A: Its MIC is 1 mg/L (≈ 3.16 µM).

Q: What about the MBC (MRSA-2 [10]; read-out: MBC) of the same compound?
A: Its MBC is 4 mg/L (≈ 12.6 µM).

Q: And the MIC ([11]; 18 h, read-out: MIC)?
A: Its MIC is 2 mg/L (≈ 6.32 µM).

Q: And the MBC ([11]; read-out: MBC)?
A: The MBC was 2 mg/L (≈ 6.32 µM).

Q: What about the biofilm elimination rate (MRSA-2 biofilm [12]) of the same compound?
A: The biofilm elimination rate was 21.4%.
